Values joined by “and” are separate entries in the source; they are usually repeats but may differ in a detail not shown here. Equal values may be shown once. Read-outs that look alike come from different tables or passages of the source.
What was measured:
IPK from M. maripaludis = IPK from M. maripaludis (Methanococcus maripaludis, UniProt Q6LWR2); test: Steady-state kinetics, coupled pyruvate kinase-lactate dehydrogenase assay, IPK
IPK from A. thaliana = IPK from A. thaliana (Arabidopsis thaliana, UniProt Q8H1F7); test: Kinetics, coupled assay, IPK
IPK from B. floridae = IPK from B. floridae (Branchiostoma floridae, UniProt A0A9J7KY69); test: Steady-state kinetics, coupled assay, IPK
[1] = test system: IPK and MDD from S. solfataricus; test: GC-MS in vitro alternative MVA pathway reaction; format: biochemical
From the text: (§1) The in vitro classical MVA pathway reactions for S. solfataricus, A. thaliana, and B. floridae yield 39.2%, 48.7%, and 52.1% conversion of MVAP (3) to 5-EA (6), respectively (FIG. 3). The in vitro classical MVA pathway reaction from R. castenholzii (using B. floridae PMK to complete the missing step) yields less then 0.2% conversion to 5-EA (FIG. 3). In contrast, the in vitro alternative MVA pathway from R. castenholzii enzymes yields a 2.0% conversion of MVAP (3) to 5-EA (6). B. floridae, A. thaliana, and S. solfataricus were tested for a possible alternative MVA pathway components using their IPKs and MDDs.
(§2) All GC-MS assays were carried out in two steps. First, 1 μM of each of two enzymes (PMK and MDD for the classical MVA pathway, MDD and IPK for the alternative MVA pathway) was incubated for 30 min with 500 μM (RS)-MVAP, 4 mM ATP, and 10 mM MgCl2 buffered with 50 mM Tris-HCl, pH 8.0. Second, 40 μl of this reaction was transferred to a glass vial containing 10 mM MgCl2 buffered with 50 mM Tris-HCl, pH 8.0, containing at least a 150-fold excess of each of the following enzymes: E. coli isopentenyl diphosphate isomerase (IPPI), E. coli farnesyl diphosphate synthase (FPPS), and tobacco 5-epi-aristolochene synthase (TEAS). This reaction mixture was overlaid with ethyl acetate, incubated overnight, and vortexed to extract hydrocarbons from the aqueous layer. GC-MS assays were performed as previously described (18). All values were compared to a control reaction, where FPP was added in place of MVA pathway enzymes at an appropriate concentration to simulate complete turnover of MVAP.

[2] = test system: IPK and MDD from B. floridae; test: GC-MS in vitro alternative MVA pathway reaction; format: biochemical
From the text: as §1, §2

[3] = test system: IPK and MDD from A. thaliana; test: GC-MS in vitro alternative MVA pathway reaction; format: biochemical
From the text: as §1, §2

PMK from S. solfataricus = PMK from S. solfataricus (Saccharolobus solfataricus, UniProt Q97UL6); test: Steady-state kinetics, coupled assay, PMK; format: biochemical
Sequence of PMK from S. solfataricus (Q97UL6 whole entry): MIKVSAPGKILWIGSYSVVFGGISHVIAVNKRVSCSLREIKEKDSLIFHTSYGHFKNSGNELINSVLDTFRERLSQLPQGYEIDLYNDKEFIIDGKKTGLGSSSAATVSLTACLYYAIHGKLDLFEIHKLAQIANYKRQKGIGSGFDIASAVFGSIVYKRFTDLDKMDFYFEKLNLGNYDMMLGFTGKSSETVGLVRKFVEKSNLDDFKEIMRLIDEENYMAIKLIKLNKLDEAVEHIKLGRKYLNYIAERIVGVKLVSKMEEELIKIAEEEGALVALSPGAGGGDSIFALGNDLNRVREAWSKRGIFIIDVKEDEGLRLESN

[4] = test system: MPD and IPK from R. castenholzii; test: GC-MS in vitro alternative MVA pathway reaction; format: biochemical
Protocol: (§3) GC-MS quantification of fully functional alternative and classical MVA pathways. To confirm that the functional R. castenholzii MPD (MDD-like protein sequence) catalyzes the transformation of MVAP (3) to IP (4) in a reconstituted in vitro pathway, a five-enzyme in vitro reaction mixture was assembled. Briefly, MVAP (3) and ATP were incubated for 30 min with MPD and IPK from R. castenholzii. The reaction mixture was then diluted into a mixture containing all necessary downstream enzymes to biosynthesize the GC-detectable sesquiterpene 5-epi-aristolochene (5-EA, 6). Similar reactions were performed for the in vitro reconstitution of the classical MVA pathway using PMK and MDD from each respective organism.
All GC-MS assays were carried out in two steps. First, 1 μM of each of two enzymes (PMK and MDD for the classical MVA pathway, MDD and IPK for the alternative MVA pathway) was incubated for 30 min with 500 μM (RS)-MVAP, 4 mM ATP, and 10 mM MgCl2 buffered with 50 mM Tris-HCl, pH 8.0. Second, 40 μl of this reaction was transferred to a glass vial containing 10 mM MgCl2 buffered with 50 mM Tris-HCl, pH 8.0, containing at least a 150-fold excess of each of the following enzymes: E. coli isopentenyl diphosphate isomerase (IPPI), E. coli farnesyl diphosphate synthase (FPPS), and tobacco 5-epi-aristolochene synthase (TEAS). […]

[5] = test system: R. castenholzii MDD homolog with B. floridae PMK; format: biochemical
MJ0403 = MJ0403 (Methanocaldococcus jannaschii, UniProt Q57846); test: In vitro decarboxylase activity of MJ0403; format: biochemical, M. jannaschii
Sequence of MJ0403 (Q57846 whole entry): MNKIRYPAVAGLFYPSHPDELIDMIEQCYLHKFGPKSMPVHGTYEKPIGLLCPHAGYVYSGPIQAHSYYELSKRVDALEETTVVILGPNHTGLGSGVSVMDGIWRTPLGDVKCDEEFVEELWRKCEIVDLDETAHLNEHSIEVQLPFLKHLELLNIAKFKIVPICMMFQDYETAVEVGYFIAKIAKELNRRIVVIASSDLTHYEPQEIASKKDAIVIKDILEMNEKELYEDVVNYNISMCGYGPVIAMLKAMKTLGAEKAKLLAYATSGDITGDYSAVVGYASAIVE
From the text: MJ0403 encodes a protein that is similar in sequence to subunit B of class III extradiol ring-cleavage dioxygenases and is also homologous to the human protein MEMO (mediator of erbB2-driven cell motility).

[6] = test system: MPD from R. castenholzii (SEQ ID NO: 1); test: Steady-state kinetics, coupled assay, MPD; format: biochemical
Protocol: (§4) Instead, it behaves as an MPD and catalyzes the decarboxylation of MVAP (3) to IP (4) with a kcat of 0.94 s^−1 and an apparent KM for MVAP of 1.150 mM (Table 2). This enzyme, by sequence homologous to MDD, has acquired an unexpected new function as a bona fide MPD playing the role of the long sought MPD of the alternative MVA pathway.
(§5) Steady-state kinetic analyses.

[7] = test system: PMK and MDD from S. solfataricus; test: GC-MS in vitro classical MVA pathway reaction; format: biochemical; details: S. solfataricus enzymes, 500 μM (RS)-MVAP, relative to FPP control
Protocol: as §3, §2

[8] = test system: PMK and MDD from A. thaliana; test: GC-MS in vitro classical MVA pathway reaction; format: biochemical; details: A. thaliana enzymes, 500 μM (RS)-MVAP, relative to FPP control
Protocol: as §3, §2

[9] = test system: PMK and MDD from B. floridae; test: GC-MS in vitro classical MVA pathway reaction; format: biochemical; details: B. floridae enzymes, 500 μM (RS)-MVAP, relative to FPP control
Protocol: as §3, §2

PMK from B. floridae = PMK from B. floridae (Branchiostoma floridae, UniProt C3Y1G0); test: Steady-state kinetics, coupled assay, PMK; format: biochemical; details: substrate MVAP
Sequence of PMK from B. floridae (C3Y1G0 1-201): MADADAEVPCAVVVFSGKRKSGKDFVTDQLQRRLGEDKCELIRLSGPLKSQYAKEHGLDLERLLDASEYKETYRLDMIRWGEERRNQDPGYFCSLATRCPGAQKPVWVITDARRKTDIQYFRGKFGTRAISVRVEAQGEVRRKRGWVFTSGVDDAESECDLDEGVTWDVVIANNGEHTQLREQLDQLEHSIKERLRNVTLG

MDD from S. solfataricus = MDD from S. solfataricus (Saccharolobus solfataricus, UniProt Q97UL5); test: Steady-state kinetics, MDD; format: biochemical; details: steady state conditions, kinetic parameters could not be assigned
Sequence of MDD from S. solfataricus (Q97UL5 whole entry): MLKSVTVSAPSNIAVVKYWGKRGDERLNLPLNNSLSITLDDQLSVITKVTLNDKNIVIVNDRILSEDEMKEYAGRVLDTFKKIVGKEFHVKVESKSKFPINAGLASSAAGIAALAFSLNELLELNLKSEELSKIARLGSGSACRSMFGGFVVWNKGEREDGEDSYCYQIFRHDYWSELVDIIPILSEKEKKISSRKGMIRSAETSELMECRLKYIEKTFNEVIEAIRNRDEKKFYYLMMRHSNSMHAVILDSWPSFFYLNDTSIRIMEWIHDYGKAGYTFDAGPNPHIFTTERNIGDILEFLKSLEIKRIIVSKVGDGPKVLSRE

MDD from B. floridae = MDD from B. floridae (Branchiostoma floridae, UniProt C3ZGP5); test: Steady-state kinetics, coupled assay, MDD; format: biochemical; details: substrate MVAPP
Sequence of MDD from B. floridae (C3ZGP5 1-409): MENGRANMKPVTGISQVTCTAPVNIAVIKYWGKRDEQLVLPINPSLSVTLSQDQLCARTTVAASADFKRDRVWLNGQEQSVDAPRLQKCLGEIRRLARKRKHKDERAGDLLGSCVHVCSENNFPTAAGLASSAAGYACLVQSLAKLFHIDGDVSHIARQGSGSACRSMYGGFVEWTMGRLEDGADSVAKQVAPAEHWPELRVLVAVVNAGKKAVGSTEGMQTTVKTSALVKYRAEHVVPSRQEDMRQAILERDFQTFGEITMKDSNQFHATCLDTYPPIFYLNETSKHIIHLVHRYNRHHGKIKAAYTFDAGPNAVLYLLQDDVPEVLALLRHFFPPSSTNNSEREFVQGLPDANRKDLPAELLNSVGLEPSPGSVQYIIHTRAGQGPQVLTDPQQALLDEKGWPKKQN

[10] = test system: MDD homolog from R. castenholzii; test: Steady-state kinetics, MDD homolog tested as MDD; format: biochemical
Protocol: as §4, §5

[11] = substrate: C=C(C)CCOP(=O)(O)O; test: purified protein, by the assay type; details: other: substrate IP
[12] = substrate: CC(O)(CCOP(=O)(O)O)CC(=O)O; test: purified protein, by the assay type; details: other: substrate MVAP; A. thaliana PMK
[13] = substrate: CC(O)(CCOP(=O)(O)OP(=O)(O)O)CC(=O)O; test: purified protein, by the assay type; details: other: substrate MVAPP; A. thaliana MDD

C=C(C)CCOP(=O)(O)O [IP, isopentenyl phosphate]
Ki (IPK from M. maripaludis): 877 µM | Ki (IPK from A. thaliana): 522 µM | Ki (IPK from B. floridae): 2820 µM

CC(O)(CCOP(=O)(O)O)CC(=O)O (stereo not shown) [MVAP, phosphomevalonate]
5-EA formation [1]: do not yield any detectable 5-EA | 5-EA formation [2]: do not yield any detectable 5-EA | 5-EA formation [3]: do not yield any detectable 5-EA | Ki (PMK from S. solfataricus): 5500 µM | kcat (PMK from S. solfataricus; substrate MVAP, S. solfataricus PMK): 1.98 (±0.10) s^−1 | conversion of MVAP to 5-EA [4]: 2.0% | conversion to 5-EA [5]: < 0.2% | turnover of MVAP (decarboxylase activity) (MJ0403): failed to show any turnover | Km ([6]; decarboxylation of MVAP to IP, read-out: apparent KM for MVAP): 1150 µM | kcat ([6]; substrate MVAP): 0.94 s^−1 and 0.94 (±0.08) s^−1 | Km ([6]; substrate MVAP, read-out: KM): 1150 µM | conversion of MVAP to 5-EA [7]: 39.2% | conversion of MVAP to 5-EA [8]: 48.7% | conversion of MVAP to 5-EA [9]: 52.1% | kcat (PMK from B. floridae): 12.6 (±0.4) s^−1

CC(O)(CCOP(=O)(O)OP(=O)(O)O)CC(=O)O (racemic) [MVAPP, diphosphomevalonate]
rate of decarboxylation of MVAPP (MDD from S. solfataricus): very slow rate | Km (MDD from B. floridae): 15.1 µM | kcat (MDD from B. floridae): 1.36 (±0.09) s^−1 | decarboxylation of MVAPP to IPP at a measurable rate [10]: does not catalyze

B1: IPK from M. maripaludis (Methanococcus maripaludis S2) (protein)
chain: MFAILKLGGSILCDKNIPYSINWENLENIAIEIKEAIEYYKSKNEEFKLIIVHGGGSFGHPVAKKYLKDGKFVDMGKGYWEIQKAMRKFNNIVIEELQNFEIPAVSIQASSFITFDNESNLHFDTNAVEKMLDKGLIPVIHGDIVIDEKTDNFKIFSGDHALPFLSKKLNPDLSLHASDVDGVWDLNFKIIENINSKNIEDVLKSLKPSNKEDVTGGMHLKVMECYNLGIKTIIFNGNKKRNIYNALLKNVKGTLIN
Km ([11]; M. maripaludis IPK): 21.4 (±4.3) μM | kcat ([11]; M. maripaludis IPK): 15.2 s⁻¹ | kcat/Km ([11]; M. maripaludis IPK): 710000 M⁻¹ s⁻¹

B2: PMK from A. thaliana (Arabidopsis thaliana) (protein)
chain: MAVVASAPGKVLMTGGYLVLEKPNAGLVLSTNARFYAIVKPINEEVKPESWAWKWTDVKLTSPQLSRESMYKLSLNHLTLQSVSASDSRNPFVEHAIQYAIAAAHLATEKDKESLHKLLLQGLDITILGSNDFYSYRNQIESAGLPLTPESLGTLAPFASITFNAAESNGANSKPEVAKTGLGSSAAMTTAVVAALLHYLGVVDLSDPCKEGKFGCSDLDVIHMIAQTSHCLAQGKVGSGFDVSCAVYGSQRYVRFSPEVLSFAQVAVTGLPLNEVIGTILKGKWDNKRTEFSLPPLMNLFLGEPGSGGSSTPSMVGAVKKWQMSDPEKARENWQNLSDANLELETKLNDLSKLAKDHWDVYLRVIKSCSVLTSEKWVLHATEPINEAIIKELLEAREAMLRIRILMRQMGEAASVPIEPESQTQLLDSTMSAEGVLLAGVPGAGGFDAIFAITLGDSGTKLTQAWSSHNVLALLVREDPHGVCLESGDPRTTCITSGVSSIHLE
Km [12]: 11.8 (±2.0) μM | kcat [12]: 20.9 ± 0.7 s⁻¹ | kcat/Km [12]: 1.77e+06 ± 310000 M⁻¹ s⁻¹

B3: MDD from A. thaliana (Arabidopsis thaliana) (protein)
chain: MAEEKWVVMVTAQTPTNIAVIKYWGKRDEVRILPINDSISVTLDPDHLCTLTTVAVSPSFDRDRMWLNGKEISLSGSRYQNCLREIRSRADDVEDKEKGIKIAKKDWEKLHLHIASHNNFPTAAGLASSAAGFACLVFALAKLMNVNEDPSQLSAIARQGSGSACRSLFGGFVKWNMGNKEDGSDSVAVQLVDDKHWDDLVIIIAVVSSRQKETSSTSGMRESVETSLLLQHRAKEVVPVRILQMEEAIKNRDFTSFTKLTCSDSNQFHAVCMDTSPPIFYMNDTSHRIISLVEKWNRSAGTPEIAYTFDAGPNAVMIARNRKVAVELLQGLLYCFPPKPDTDMKSYVLGDTSIVKEAGLEGELPQGIKDKIGSQDQKGEVSYFICSRPGRGPVVLQDQTQALLHPQTGLPK
Km [13]: 15.7 (±5.0) μM | kcat [13]: 2.02 ± 0.13 s⁻¹ | kcat/Km [13]: 130000 ± 40000 M⁻¹ s⁻¹

B4: IPK from B. floridae (Branchiostoma floridae) (protein)
chain: MVSSSRSKVMAEADASLECIVKLGGSAVTDKSTLETPRLDAIRAAADIISQVRGRCIVVHGAGSFGHFQAREHGVVWGYRDKETDTEVQTVKLGFCRTRQSVTKLLHIITEEFVRLGIPAVGVSPLSSWVTDDASVVKADTDNIRDMLLEGFLPVMHGDAVLDRKRGCTILSGDTIIKHLCSVFRPPRVVFLTDVPGIYDRPPEQPGAQLIPEIQVDRDRKLHVSIATSSQAHDVTGGIALKLKSAIDIVTESNGHTCVMVCGIQSQAAVRACVEGQLPQGTGTIVQLNISKHPDEVT
Km ([11]; B. floridae IPK): 13.3 (±2.0) μM | kcat ([11]; B. floridae IPK): 27.2 s⁻¹ | kcat/Km ([11]; B. floridae IPK): 2.05e+06 M⁻¹ s⁻¹

B5: IPK from T. adhaerens (Trichoplax adhaerens) (protein)
chain: MALENRHVDCIIKLGGSAITSKQHLEKANTQAINIAASHVHEMTRKCVIVHGAGSFGHFHAKKYNIATGFNDTDFEQQRIGFSQTRLSVTKLNHIIVQALIEKDVPAVSISPCGLWKTTDRSVTSTFLQPINDLLRAGFVPVVHGDAVIDTSLGCTILSGDTIIQILAENLCPKRIIFITDTNGIYDRPPHNDDAKLLRYISVTKDGKVTNEIETSQLEHDVTGGVQTKIASAAHIVSKCNIPVHVVKLGSAAAWKLLDKGELEESDIATTITLQESEYPK
Km ([11]; T. adhaerens IPK): 3.1 (±1.6) μM | kcat ([11]; T. adhaerens IPK): 2.4 s⁻¹ | kcat/Km ([11]; T. adhaerens IPK): 770000 M⁻¹ s⁻¹

B6: IPK from A. thaliana (Arabidopsis thaliana) (protein)
chain: MELNISESRSRSIRCIVKLGGAAITCKNELEKIHDENLEVVACQLRQAMLEGSAPSKVIGMDWSKRPGSSEISCDVDDIGDQKSSEFSKFVVVHGAGSFGHFQASRSGVHKGGLEKPIVKAGFVATRISVTNLNLEIVRALAREGIPTIGMSPFSCGWSTSKRDVASADLATVAKTIDSGFVPVLHGDAVLDNILGCTILSGDVIIRHLADHLKPEYVVFLTDVLGVYDRPPSPSEPDAVLLKEIAVGEDGSWKVVNPLLEHTDKKVDYSVAAHDTTGGMETKISEAAMIAKLGVDVYIVKAATTHSQRALNGDLRDSVPEDWLGTIIRFSK
Km ([11]; A. thaliana IPK): 0.79 (±0.35) μM | kcat ([11]; A. thaliana IPK): 1.9 s⁻¹ | kcat/Km ([11]; A. thaliana IPK): 2.4e+06 M⁻¹ s⁻¹
